Measurements reported in the supplement of paper PMC10627819.

Key:
Assay in all cases: fitness (endpoint OD595 vs no drug) (fraction); higher = more growth
S. pneumoniae D39V = tested on: S. pneumoniae D39V
How it was run: (§1)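 Fitness is computed from the optical density at which cultures reach stationary phase, divided by the robust mean of no-drug control wells. Any value above 1 is set to 1. Cultures started at OD595 0.01 in 384-well plates with TSB, LB Lennox or CY at 37 °C, and OD595 was read every 30 min for 14 h against a first-reading background.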

S. aureus DSM 20231 = tested on: S. aureus DSM 20231
How it was run: as §1

B. subtilis 168 = tested on: B. subtilis 168
How it was run: as §1
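Note: OD595 on entry to stationary phase over no-drug wells; at most 1.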

CN(C)[C@@H]1C(O)=C(C(N)=O)C(=O)[C@@]2(O)C(O)=C3C(=O)c4c(O)ccc(Cl)c4[C@@](C)(O)[C@H]3C[C@@H]12 [Chlortetracycline] + CO[C@@]12[C@H](COC(N)=O)C3=C(C(=O)C(C)=C(N)C3=O)N1C[C@@H]1N[C@@H]12 [Mitomycin C]
fitness
Conditions | first compound 0.012 µg/mL | first compound 0.024 µg/mL | first compound 0.048 µg/mL | first compound 0.375 µg/mL | first compound 0.75 µg/mL | first compound 1.5 µg/mL
S. aureus DSM 20231, partner 0.0156 µg/mL | 0.55 | 0.288 | 0.0746 | – | – | –
S. aureus DSM 20231, partner 0.0312 µg/mL | 0.52 | 0.224 | 0.0614 | – | – | –
S. aureus DSM 20231, partner 0.0625 µg/mL | 0.384 | 0.174 | 0.17 | – | – | –
S. pneumoniae D39V, partner 0.001075 µg/mL | 0.924 | 0.895 | 0.824 | – | – | –
S. pneumoniae D39V, partner 0.002 µg/mL | – | – | – | 0.0654 | 0.0249 | 0.0576
S. pneumoniae D39V, partner 0.00215 µg/mL | 0.853 | 0.832 | 0.788 | – | – | –
S. pneumoniae D39V, partner 0.004 µg/mL | – | – | – | 0.0793 | 0.0699 | 0.0536
S. pneumoniae D39V, partner 0.0043 µg/mL | 0.687 | 0.713 | 0.645 | – | – | –
S. pneumoniae D39V, partner 0.008 µg/mL | – | – | – | 0.0339 | 0.0265 | 0.0168

S. aureus DSM 20231, first compound 0.006 µg/mL, one replicate
Conditions | fitness
partner 0.0156 µg/mL | 0.65
partner 0.0312 µg/mL | 0.64
partner 0.0625 µg/mL | 0.542

CN(C)[C@@H]1C(O)=C(C(N)=O)C(=O)[C@@]2(O)C(O)=C3C(=O)c4c(O)ccc(Cl)c4[C@@](C)(O)[C@H]3C[C@@H]12 [Chlortetracycline] + COc1cc(Cc2cnc(N)nc2N)cc(OC)c1OC [Trimethoprim]
one replicate
Conditions | fitness
B. subtilis 168, first compound 0.0475 µg/mL, partner 0.1 µg/mL | 0.82
B. subtilis 168, first compound 0.0475 µg/mL, partner 0.2 µg/mL | 0.735
B. subtilis 168, first compound 0.0475 µg/mL, partner 0.4 µg/mL | 0.637
B. subtilis 168, first compound 0.0475 µg/mL, partner 1 µg/mL | 0.296
B. subtilis 168, first compound 0.0475 µg/mL, partner 2 µg/mL | 0.305
B. subtilis 168, first compound 0.095 µg/mL, partner 0.1 µg/mL | 0.81
B. subtilis 168, first compound 0.095 µg/mL, partner 0.2 µg/mL | 0.707
B. subtilis 168, first compound 0.095 µg/mL, partner 0.4 µg/mL | 0.531
B. subtilis 168, first compound 0.095 µg/mL, partner 1 µg/mL | 0.132
B. subtilis 168, first compound 0.095 µg/mL, partner 2 µg/mL | 0.119
B. subtilis 168, first compound 0.19 µg/mL, partner 0.1 µg/mL | 0.599
B. subtilis 168, first compound 0.19 µg/mL, partner 0.2 µg/mL | 0.421
B. subtilis 168, first compound 0.19 µg/mL, partner 0.4 µg/mL | 0.279
B. subtilis 168, first compound 0.19 µg/mL, partner 1 µg/mL | 0.0652
B. subtilis 168, first compound 0.19 µg/mL, partner 2 µg/mL | 0.0699
S. aureus DSM 20231, first compound 0.006 µg/mL, partner 0.125 µg/mL | 0.656
S. aureus DSM 20231, first compound 0.006 µg/mL, partner 0.25 µg/mL | 0.606
S. aureus DSM 20231, first compound 0.006 µg/mL, partner 0.5 µg/mL | 0.509
S. aureus DSM 20231, first compound 0.048 µg/mL, partner 0.125 µg/mL | 0.0947

fitness
Conditions | partner 0.125 µg/mL | partner 0.25 µg/mL | partner 0.5 µg/mL | partner 1 µg/mL
B. subtilis 168, first compound 0.0475 µg/mL | 0.762 | 0.62 | – | –
B. subtilis 168, first compound 0.095 µg/mL | 0.673 | 0.548 | – | –
B. subtilis 168, first compound 0.19 µg/mL | 0.52 | 0.406 | 0.279 | –
S. aureus DSM 20231, first compound 0.012 µg/mL | 0.47 | 0.545 | 0.36 | 0.0767
S. aureus DSM 20231, first compound 0.024 µg/mL | 0.159 | – | 0.171 | 0.0593
S. aureus DSM 20231, first compound 0.048 µg/mL | – | 0.117 | 0.0724 | 0.042

CN(C)[C@@H]1C(O)=C(C(N)=O)C(=O)[C@@]2(O)C(O)=C3C(=O)c4c(O)ccc(Cl)c4[C@@](C)(O)[C@H]3C[C@@H]12 [Chlortetracycline] + Cn1nnc(-c2ccc(-c3ccc(N4C[C@H](CO)OC4=O)cc3F)cn2)n1 [Tedizolid]
fitness
Conditions | first compound 0.012 µg/mL | first compound 0.024 µg/mL | first compound 0.048 µg/mL | first compound 0.375 µg/mL | first compound 0.75 µg/mL | first compound 1.5 µg/mL
S. aureus DSM 20231, partner 0.0625 µg/mL | 0.496 | 0.236 | 0.0517 | – | – | –
S. aureus DSM 20231, partner 0.125 µg/mL | 0.532 | 0.172 | 0.0562 | – | – | –
S. aureus DSM 20231, partner 0.25 µg/mL | 0.25 | 0.161 | 0.102 | – | – | –
S. pneumoniae D39V, partner 0.03125 µg/mL | 0.966 | 0.949 | 0.944 | – | – | –
S. pneumoniae D39V, partner 0.0625 µg/mL | 0.95 | 0.962 | 0.878 | – | – | –
S. pneumoniae D39V, partner 0.125 µg/mL | 0.795 | 0.789 | 0.845 | 0.0202 | 0.0366 | 0.0518
S. pneumoniae D39V, partner 0.25 µg/mL | – | – | – | 0.0375 | 0.043 | 0.0385
S. pneumoniae D39V, partner 0.5 µg/mL | – | – | – | 0.0294 | 0.0348 | 0.0435

S. aureus DSM 20231, first compound 0.006 µg/mL, one replicate
Conditions | fitness
partner 0.0625 µg/mL | 0.696
partner 0.125 µg/mL | 0.659
partner 0.25 µg/mL | 0.361

CN(C)[C@@H]1C(O)=C(C(N)=O)C(=O)[C@@]2(O)C(O)=C3C(=O)c4c(O)ccc(Cl)c4[C@@](C)(O)[C@H]3C[C@@H]12 [Chlortetracycline] + N[C@@H]1CONC1=O [Cycloserine D]
fitness
Conditions | first compound 0.012 µg/mL | first compound 0.024 µg/mL | first compound 0.0475 µg/mL | first compound 0.048 µg/mL | first compound 0.095 µg/mL | first compound 0.19 µg/mL
B. subtilis 168, partner 0.125 µg/mL | – | – | 0.936 | – | 0.784 | 0.515
B. subtilis 168, partner 0.25 µg/mL | – | – | 0.894 | – | 0.782 | 0.439
B. subtilis 168, partner 0.5 µg/mL | – | – | 0.899 | – | 0.764 | 0.515
S. aureus DSM 20231, partner 0.375 µg/mL | 0.667 | 0.241 | – | 0.0627 | – | –
S. aureus DSM 20231, partner 0.75 µg/mL | 0.623 | 0.249 | – | 0.0661 | – | –
S. aureus DSM 20231, partner 1.5 µg/mL | 0.68 | 0.264 | – | 0.0906 | – | –

S. aureus DSM 20231, first compound 0.006 µg/mL, one replicate
Conditions | fitness
partner 0.375 µg/mL | 0.804
partner 0.75 µg/mL | 0.782
partner 1.5 µg/mL | 0.804
